Laboratory results: PMC2330087, “Mechanistic Insights into a Novel Exporter-Importer System of Mycobacterium tuberculosis Unravel Its Role in Trafficking of Iron” (PLoS ONE, 2008)

Target: T1, rIrtA (Rv1348) in LP-48 liposomes (Mycobacterium tuberculosis, UniProt P9WQJ9)
T1 construct: gene irtA
T1 sequence (P9WQJ9 whole entry): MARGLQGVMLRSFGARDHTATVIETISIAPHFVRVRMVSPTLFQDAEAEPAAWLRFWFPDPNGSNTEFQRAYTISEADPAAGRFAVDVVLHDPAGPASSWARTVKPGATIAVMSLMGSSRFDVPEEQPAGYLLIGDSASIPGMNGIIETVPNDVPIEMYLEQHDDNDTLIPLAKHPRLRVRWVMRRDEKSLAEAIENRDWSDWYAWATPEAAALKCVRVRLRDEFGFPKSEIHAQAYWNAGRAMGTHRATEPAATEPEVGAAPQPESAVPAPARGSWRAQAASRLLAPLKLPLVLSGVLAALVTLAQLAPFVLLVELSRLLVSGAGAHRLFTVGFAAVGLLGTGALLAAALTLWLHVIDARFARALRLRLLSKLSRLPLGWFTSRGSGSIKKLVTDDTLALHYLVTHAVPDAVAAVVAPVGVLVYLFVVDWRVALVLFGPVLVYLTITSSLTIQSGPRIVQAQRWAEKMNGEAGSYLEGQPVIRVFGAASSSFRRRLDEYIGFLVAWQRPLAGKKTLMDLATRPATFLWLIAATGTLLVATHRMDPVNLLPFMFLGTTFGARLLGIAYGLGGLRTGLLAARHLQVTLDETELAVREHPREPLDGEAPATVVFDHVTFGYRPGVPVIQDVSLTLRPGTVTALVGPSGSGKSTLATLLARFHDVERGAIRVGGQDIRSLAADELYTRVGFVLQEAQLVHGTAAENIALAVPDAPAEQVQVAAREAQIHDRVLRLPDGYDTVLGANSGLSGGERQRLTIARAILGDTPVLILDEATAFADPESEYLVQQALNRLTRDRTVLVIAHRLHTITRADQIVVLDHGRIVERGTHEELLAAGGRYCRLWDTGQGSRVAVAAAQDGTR

## Nc1ncnc2c1ncn2[C@@H]1O[C@H](COP(=O)(O)OP(=O)(O)OP(=O)(O)O)[C@@H](O)[C@H]1O [ATP]
  inorganic phosphate release in proteoliposomes: the ATP hydrolysis by rIrtA was not seen in the absence of cMyco
